One test concerns the target T1, recombinant BRD4 BD1 (Homo sapiens, UniProt O60885).
T1 construct: recombinant BRD4 BD1 and BRD4 BD2 proteins
In words: Competitive fluorescence-polarization (FP) binding assay, BRD4 BD1. The settings on record: protein 10 nM, probe 1.5 nM.

In the next test the test system is MOLM-13. In words: Cell growth inhibition, 4-day proliferation assay, MOLM-13. The class given is cell-based. The conditions noted are these: read-out: Cell Viability (IC50, μM) MOLM-13. As for the experimental part:
(§1) The effect of representative Compounds of the Disclosure on cell viability was determined in a 4-day proliferation assay. Cells were maintained in the appropriate culture medium with 10% FBS at 37° C. and an atmosphere of 5% CO2. All the cell lines were used within three months of thawing fresh vials.
(§2) Cells were seeded in 96-well flat bottom (Corning COSTAR, Corning, N.Y., cat #3595) or white opaque cell culture plates (BD Falcon, cat #353296) at a density of 3,000-10,000 cells/well in 75 μl of culture medium. Compounds were serially diluted in the appropriate medium, and 75 μl of the diluted compounds were added to the appropriate wells of the cell plate. After the addition of compounds, the cells were incubated at 37° C. in an atmosphere of 5% CO2 for 4 days. Cell viability was determined using the CellTiter-Glo® Luminescent Cell Viability Assay Kit (Promega, Madison, Wis.) for leukemia cells and WST (2-(2-methoxy-4-nitrophenyl)-3-(4-nitrophenyl)-5-(2,4-disulfophenyl)-2H-tetrazolium, monosodium salt) Cell Counting-8 Kit (Dojindo Molecular Technologies, Inc., Rockville, Md.) for adhenrent cells according to the manufacturers' instructions. […]
(§3) For CellTiter-Glo assay (suspension cells), 100 μl of CellTiter-Glo® Reagent was added to each well, and then the plates were incubated at room temperature for 10-20 minutes. The luminescent signal was measured using a Tecan Infinite M1000 multimode microplate reader (Tecan, Morrisville, N.C.). The readings were normalized to the DMSO-treated cells and the IC50 was calculated by nonlinear regression (four parameters sigmoid fitted with variable slope, least squares fit, and no constraint) analysis using the GraphPad Prism 5 software. See US 2014/0256706.

For a further test, the target named is T2, recombinant BRD4 BD2 (Homo sapiens, UniProt O60885).
T2 construct: recombinant BRD4 BD1 and BRD4 BD2 proteins
Briefly: Competitive fluorescence-polarization (FP) binding assay, BRD4 BD2. The settings on record: protein 6 nM, probe 1.5 nM.

The test system of another test is RS4-11. Briefly: Cell growth inhibition, 4-day proliferation assay, RS4-11. The class given is cell-based. The conditions noted are these: 4 days incubation, RS4-11 cells, read-out: Cell Viability (IC50, μM) RS4-11. As for the experimental part: as §1, §2, §3
[1] abbreviates: FP competitive binding, read-out: IC50 (nM) BRD4 BD1.
Where [2] appears, read: Homo sapiens, MOLM-13, 96 h, 4 days incubation, MOLM-13 cells.

Each structure is given as a SMILES string. Several values for one entry are separate records, joined by “and”; a condition that tells them apart may be missing. Equal values may be shown once. Read-outs that look alike come from different tables or passages of the source.

Method for recombinant BRD4 BD1: Fluorescence Polarization (FP) competitive binding studies were carried out using a FAM labeled fluorescent probe, see Cpd. […] Equilibrium dissociation constants (Kd) values of the fluorescent probe to BRD4 BD1 and BD2 proteins were determined from protein saturation experiments by monitoring the total fluorescence polarization of mixtures composed with the fluorescent probe at a fixed concentration and proteins with increasing concentrations up to full saturation. […] Plates were incubated at room temperature for 30 minutes with gentle shaking to assure equilibrium.
The IC50 and Ki values of compounds were determined in a competitive binding experiment. […] Mixtures of 10 μl of the tested compounds in assay buffer with 40% Ethylene Glycol and 190 μl of preincubated protein/probe complex solution in the assay buffer (100 mM potassium phosphate, pH 6.5, 0.01% Triton X-100) were added into assay plates which were incubated at room temperature for 30 minutes with gentle shaking. Final concentrations of proteins were 10 and 6 nM in assays for BRD4 BD1 and BD2, respectively. […] FP values were measured as described above. IC50 values were determined by nonlinear regression fitting of the competition curves.
Method for recombinant BRD4 BD2: Fluorescence Polarization (FP) competitive binding studies were carried out using a FAM labeled fluorescent probe, see Cpd. […] Equilibrium dissociation constants (Kd) values of the fluorescent probe to BRD4 BD1 and BD2 proteins were determined from protein saturation experiments by monitoring the total fluorescence polarization of mixtures composed with the fluorescent probe at a fixed concentration and proteins with increasing concentrations up to full saturation. Serial dilutions of testing proteins were mixed with the fluorescent probe to a final volume of 200 μl in the assay buffer (100 mM phosphate buffer, pH=6.5, 0.01% Triton X-100 (Sigma, 282103) being added right before assays). Final fluorescent probe concentration was 1.5 nM for both proteins. Plates were incubated at room temperature for 30 minutes with gentle shaking to assure equilibrium. FP values in millipolarization units (mP) were measured using the Infinite M-1000 plate reader (Tecan U.S., Research Triangle Park, N.C.) in Microfluor 1 96-well, black, round-bottom plates (Thermo Scientific, Waltham, Mass.) at an excitation wavelength of 485 nm and an emission wavelength of 530 nm.
The IC50 and Ki values of compounds were determined in a competitive binding experiment. […] Mixtures of 10 μl of the tested compounds in assay buffer with 40% Ethylene Glycol and 190 μl of preincubated protein/probe complex solution in the assay buffer (100 mM potassium phosphate, pH 6.5, 0.01% Triton X-100) were added into assay plates which were incubated at room temperature for 30 minutes with gentle shaking. Final concentrations of proteins were 10 and 6 nM in assays for BRD4 BD1 and BD2, respectively. Final probe concentration is 1.5 nM in both assays. […] FP values were measured as described above. IC50 values were determined by nonlinear regression fitting of the competition curves.

By IC50 is commonly meant the concentration needed to halve the response being measured. As for `Cc1nnc2n1-c1sc(-c3ccc(N)nc3)c(Cc3ccccc3)c1COC2` [Cpd. No. 32, 5-(3-benzyl-9-methyl-4H,6H-thieno[2,3-e][1,2,4]triazolo[3,4-c][1,4]oxazepin-2-yl)pyridin-2-amine], the values for the IC50 on recombinant BRD4 BD1 (setting [1]) and with MOLM-13 (setting [2]) were 294 nM and 1.9 µM, respectively.

In the case of `Cc1nnc2n1-c1cccc(C3CCCc4ccccc43)c1COC2` (stereo not shown) [Cpd. No. 50, 1-methyl-7-(1,2,3,4-tetrahydronaphthalen-1-yl)-4,6-dihydrobenzo[e][1,2,4]triazolo[3,4-c][1,4]oxazepine], the IC50 on recombinant BRD4 BD2 is 146 nM and 247 nM; at recombinant BRD4 BD1 (setting [1]), 425 nM and 585 nM; with MOLM-13 (setting [2]), 2.7 µM.

Consider `Cc1nnc2n1-c1cccc(C(C)c3ccccc3)c1COC2` (stereo not shown) [Cpd. No. 46, 1-methyl-7-(1-phenylethyl)-4,6-dihydrobenzo[e][1,2,4]triazolo[3,4-c][1,4]oxazepine], for which the figures for the IC50 on recombinant BRD4 BD2, at recombinant BRD4 BD1 (setting [1]) and in the test on MOLM-13 (setting [2]) were 268 nM, 807 nM and 2.9 µM, respectively.

Regarding `Cc1sc2c(c1Cc1ccccc1)CN(C)Cc1nnc(C)n1-2` [Cpd. No. 35, 3-benzyl-2,5,9-trimethyl-5,6-dihydro-4H-thieno[3,2-f][1,2,4]triazolo[4,3-a][1,4]diazepine], the 50% inhibitory concentration (IC50) at recombinant BRD4 BD1 (setting [1]) is 602 nM; with MOLM-13 (setting [2]), 2.2 µM.

`Cc1nnc2n1-c1ccc(-c3cnn(C)c3)c(Cc3ccccc3)c1COC2` [Cpd. No. 73, 7-benzyl-1-methyl-8-(1-methyl-1H-pyrazol-4-yl)-4,6-dihydrobenzo[e][1,2,4]triazolo[3,4-c][1,4]oxazepine]: the IC50 on recombinant BRD4 BD1 (setting [1]) is 234 nM and 366 nM; in the test with MOLM-13 (setting [2]) it was 1.1 µM.

In the case of `CCOC(=O)N1Cc2c(sc(C)c2Cc2ccccc2)-n2c(C)nnc2[C@@H]1C` [Cpd. No. 18, ethyl (S)-3-benzyl-2,6,9-trimethyl-4H-thieno[3,2-f][1,2,4]triazolo[4,3-a][1,4]diazepine-5(6H)-carboxylate], the IC50 at recombinant BRD4 BD2 was found to be 601 nM; on recombinant BRD4 BD1 (setting [1]) it was 532 nM; in the test with MOLM-13 (Homo sapiens, MOLM-13, 96 h), 4.3 µM.

For the compound `Cc1nnc2n1-c1ccc(C#CCCO)c(Cc3ccccc3)c1COC2` [Cpd. No. 84, 4-(7-benzyl-1-methyl-4,6-dihydrobenzo[e][1,2,4]triazolo[3,4-c][1,4]oxazepin-8-yl)but-3-yn-1-ol], the IC50 in the test on MOLM-13 (setting [2]) amounted to 0.7 µM; in the test on RS4-11 (Homo sapiens, RS4-11, 96 h) it was 1 µM.

As to `Cc1nnc2n1-c1sc(C3CC3)c(Cc3ccccc3)c1COC2` [Cpd. No. 93, 3-benzyl-2-cyclopropyl-9-methyl-4H,6H-thieno[2,3-e][1,2,4]triazolo[3,4-c][1,4]oxazepine], the IC50 in the test on MOLM-13 (setting [2]) is over 5 µM; with RS4-11 (Homo sapiens, RS4-11, 96 h), over 5 µM.

On to `Cc1sc2c(c1Cc1cccc(Cl)c1)COCc1nnc(C)n1-2` [Cpd. No. 8, 3-(3-chlorobenzyl)-2,9-dimethyl-4H,6H-thieno[2,3-e][1,2,4]triazolo[3,4-c][1,4]oxazepine], for which the half-maximal inhibitory concentration (IC50) stood at 285 nM at recombinant BRD4 BD2, 311 nM on recombinant BRD4 BD1 (setting [1]) and 2.5 µM with MOLM-13 (setting [2]).

With `Cc1nnc2n1-c1cccc(C3=CCCc4ccccc43)c1COC2` [Cpd. No. 49, 7-(3,4-dihydronaphthalen-1-yl)-1-methyl-4,6-dihydrobenzo[e][1,2,4]triazolo[3,4-c][1,4]oxazepine], the 50% inhibitory concentration (IC50) is 271 nM and 175 nM at recombinant BRD4 BD2; 2350 nM and 1820 nM on recombinant BRD4 BD1 (setting [1]); over 5 µM with MOLM-13 (setting [2]).

Regarding `Cc1sc2c(c1Cc1ccccc1)CN(CC1CC1)[C@@H](C)c1nnc(C)n1-2` [Cpd. No. 27, (S)-3-benzyl-5-(cyclopropylmethyl)-2,6,9-trimethyl-5,6-dihydro-4H-thieno[3,2-f][1,2,4]triazolo[4,3-a][1,4]diazepine], the IC50 was 2610 nM on recombinant BRD4 BD2, 611 nM at recombinant BRD4 BD1 (setting [1]) and over 5 µM in the test with MOLM-13 (setting [2]).

Take `Cc1sc2c(c1Cc1ccccc1)CN(C(=O)OCc1ccccc1)[C@H](C)c1nnc(C)n1-2` [Cpd. No. 16, benzyl (R)-3-benzyl-2,6,9-trimethyl-4H-thieno[3,2-f][1,2,4]triazolo[4,3-a][1,4]diazepine-5(6H)-carboxylate]: the concentration for half-maximal inhibition (IC50) on recombinant BRD4 BD2 amounted to 326 nM; on recombinant BRD4 BD1 (setting [1]), 229 nM; with MOLM-13 (setting [2]) it was 2.8 µM.

For the compound `C=C(c1ccccc1)c1c(C)sc2c1COCc1nnc(C)n1-2` [Cpd. No. 24, 2,9-dimethyl-3-(1-phenylvinyl)-4H,6H-thieno[2,3-e][1,2,4]triazolo[3,4-c][1,4]oxazepine], the IC50 was 492 nM on recombinant BRD4 BD2, 491 nM on recombinant BRD4 BD1 (setting [1]) and 3.4 µM in the test on MOLM-13 (setting [2]).

Turning to `Cc1nnc2n1-c1sc(C#Cc3cnn(C)c3)c(Cc3ccc(F)cc3)c1COC2` [Cpd. No. 111, 3-(4-fluorobenzyl)-9-methyl-2-((1-methyl-H-pyrazol-4-yl)ethynyl)-4H,6H-thieno[2,3-e][1,2,4]triazolo[3,4-c][1,4]oxazepine], the 50% inhibitory concentration (IC50) on recombinant BRD4 BD2 is 112 nM and 142 nM and 127 nM; at recombinant BRD4 BD1 (setting [1]), 5.4 nM and 10.5 nM and 12.9 nM; in the test with RS4-11, 0.25 µM; in the test on RS4-11 (Homo sapiens, RS4-11, 96 h) it was 0.18 µM.

For `Cc1sc2c(c1Cc1ccc(Cl)cc1)COCc1nnc(C)n1-2` [Cpd. No. 9, 3-(4-chlorobenzyl)-2,9-dimethyl-4H,6H-thieno[2,3-e][1,2,4]triazolo[3,4-c][1,4]oxazepine], the IC50 worked out at 271 nM at recombinant BRD4 BD2, 88.4 nM on recombinant BRD4 BD1 (setting [1]) and 1 µM with MOLM-13 (setting [2]).

Turning to `Cc1nnc2n1-c1sc(C#CCCO)c(Cc3ccccc3)c1CO[C@H]2C` [Cpd. No. 113, (S)-4-(3-benzyl-6,9-dimethyl-4H,6H-thieno[2,3-e][1,2,4]triazolo[3,4-c][1,4]oxazepin-2-yl)but-3-yn-1-ol], the IC50 at recombinant BRD4 BD2 is 146 nM and 149 nM; at recombinant BRD4 BD1 (setting [1]), 26.9 nM and 40 nM; in the test with RS4-11, 0.45 µM; with RS4-11 (Homo sapiens, RS4-11, 96 h), 0.24 µM.

For the compound `Cc1nnc2n1-c1sc(Br)c(Cc3ccccc3)c1COC2` [Cpd. No. 31, 3-benzyl-2-bromo-9-methyl-4H,6H-thieno[2,3-e][1,2,4]triazolo[3,4-c][1,4]oxazepine], the IC50 on recombinant BRD4 BD1 (setting [1]) is 209 nM and 265 nM and 352 nM; in the test on MOLM-13 (4 days incubation, MOLM-13 cells) it was 1.7 µM; in the test with MOLM-13 (setting [2]) it was 1.4 µM.

For the compound `Cc1sc2c(c1Cc1ccccc1)CN(C)[C@H](C)c1nnc(C)n1-2` [Cpd. No. 34, (R)-3-benzyl-2,5,6,9-tetramethyl-5,6-dihydro-4H-thieno[3,2-f][1,2,4]triazolo[4,3-a][1,4]diazepine], the half-maximal inhibitory concentration (IC50) with MOLM-13 (setting [2]) came to 1 µM.

`Cc1nnc2n1-c1ccc(Cl)c(Cc3ccccc3)c1COC2` [Cpd. No. 71, 7-benzyl-8-chloro-1-methyl-4,6-dihydrobenzo[e][1,2,4]triazolo[3,4-c][1,4]oxazepine]: the IC50 at recombinant BRD4 BD1 (IC50 (nM) BRD4 BD1, FP competitive binding) amounted to 864 nM; with MOLM-13 (Homo sapiens, MOLM-13, 96 h), 3.8 µM.

As to `C#Cc1sc2c(c1Cc1ccccc1)COCc1nnc(C)n1-2` [Cpd. No. 33, 3-benzyl-2-ethynyl-9-methyl-4H,6H-thieno[2,3-e][1,2,4]triazolo[3,4-c][1,4]oxazepine], the IC50 with MOLM-13 (setting [2]) turned out to be 1 µM.

As to `Cc1nnc2n1-c1cccc(C3(c4ccccc4)CC3)c1COC2` [Cpd. No. 48, 1-methyl-7-(1-phenylcyclopropyl)-4,6-dihydrobenzo[e][1,2,4]triazolo[3,4-c][1,4]oxazepine], the IC50 at recombinant BRD4 BD2 is 71.6 nM and 137 nM; on recombinant BRD4 BD1 (setting [1]), 454 nM and 696 nM; with MOLM-13 (setting [2]) it was 1.4 µM.

Regarding `Cc1sc2c(c1-c1ccnc3ccccc13)COCc1nnc(C)n1-2` [Cpd. No. 5, 2,9-dimethyl-3-(quinolin-4-yl)-4H,6H-thieno[2,3-e][1,2,4]triazolo[3,4-c][1,4]oxazepine], the half-inhibitory concentration (IC50) on recombinant BRD4 BD2 was 1070 nM; on recombinant BRD4 BD1 (setting [1]), 1370 nM; in the test with RS4-11 (Homo sapiens, RS4-11, 96 h) it was over 5 µM.

As to `Cc1sc2c(c1C(C)c1ccccc1)COCc1nnc(C)n1-2` (stereo not shown) [Cpd. No. 28, 2,9-dimethyl-3-(1-phenylethyl)-4H,6H-thieno[2,3-e][1,2,4]triazolo[3,4-c][1,4]oxazepine], the IC50 at recombinant BRD4 BD2 was 749 nM; on recombinant BRD4 BD1 (setting [1]), 772 nM; with MOLM-13 (setting [2]), 4.7 µM.

With `Cc1sc2c(c1Cc1ccccc1)CN(C)[C@@H](C)c1nnc(C)n1-2` [Cpd. No. 20, (S)-3-benzyl-2,5,6,9-tetramethyl-5,6-dihydro-4H-thieno[3,2-f][1,2,4]triazolo[4,3-a][1,4]diazepine], the IC50 on recombinant BRD4 BD2 was 636 nM and 1210 nM; on recombinant BRD4 BD1 (setting [1]), 235 nM and 340 nM; in the test on MOLM-13 (setting [2]), 1.3 µM.

For `Cc1sc2c(c1Cc1ccccc1Cl)COCc1nnc(C)n1-2` [Cpd. No. 10, 3-(2-chlorobenzyl)-2,9-dimethyl-4H,6H-thieno[2,3-e][1,2,4]triazolo[3,4-c][1,4]oxazepine], the IC50 worked out at 312 nM on recombinant BRD4 BD2, 263 nM at recombinant BRD4 BD1 (setting [1]) and 3.4 µM with MOLM-13 (setting [2]).
